Assay results as given in patent publication US12661345B2, “Compositions for the treatment of hypertension” (The George Institute for Global Health, priority 2017, dated 2026).

Test system: participants with migraine
Assay: Safety: serious adverse events and adverse events of special interest in the 3×3 factorial trial
[1] = Anytime between Week 0 to Week 12, % of participants
[2] = Anytime between Week 0 to Week 12, n/N participants
[3] = Randomization, % of participants
[4] = Randomization, n/N participants

CCC(C)(C)C(=O)O[C@H]1C[C@@H](C)C=C2C=C[C@H](C)[C@H](CC[C@@H]3C[C@@H](O)CC(=O)O3)[C@H]21 [Simvastatin, simvastatin]
Subjects with any serious adverse event (SAE) in 12 weeks (n/N) (12 weeks): 0/9 | Subjects with any serious adverse event (SAE) in 12 weeks (percent) (12 weeks): 0.0% | Any SAEs [1]: (0.0%) | Bradycardia [1]: (0.0%) | Falls [1]: (0.0%) | Feeling faint/dizziness [1]: (33.3%) | Flushing [1]: (11.1%) | Gastrointestinal complaints [1]: (22.2%) | Gout [1]: (0.0%) | Headache [1]: (100.0%) | Insomnia [1]: (22.2%) | Muscle cramps [1]: (11.1%) | Myalgia [1]: (0.0%) | Nightmares [1]: (11.1%) | Pedal edema [1]: (0.0%) | Skin rash/itching [1]: (11.1%) | Syncope [1]: (0.0%) | Any SAEs [2]: 0/9 | Bradycardia [2]: 0/9 | Falls [2]: 0/9 | Feeling faint/dizziness [2]: 3/9 | Flushing [2]: 1/9 | Gastrointestinal complaints [2]: 2/9 | Gout [2]: 0/9 | Headache [2]: 9/9 | Insomnia [2]: 2/9 | Muscle cramps [2]: 1/9 | Myalgia [2]: 0/9 | Nightmares [2]: 1/9 | Pedal edema [2]: 0/9 | Skin rash/itching [2]: 1/9 | Syncope [2]: 0/9 | Any SAEs since the last visit? [3]: (0.0%) | Bradycardia [3]: (0.0%) | Falls [3]: (11.1%) | Feeling faint/dizziness [3]: (22.2%) | Flushing [3]: (33.3%) | Gastrointestinal complaints [3]: (0.0%) | Gout [3]: (0.0%) | Headache [3]: (100.0%) | Insomnia [3]: (22.2%) | Muscle cramps [3]: (22.2%) | Myalgia [3]: (0.0%) | Nightmares [3]: (11.1%) | Pedal edema [3]: (0.0%) | Skin rash/itching [3]: (0.0%) | Syncope [3]: (0.0%) | Any SAEs since the last visit? [4]: 0/9 | Bradycardia [4]: 0/9 | Falls [4]: 1/9 | Feeling faint/dizziness [4]: 2/9 | Flushing [4]: 3/9 | Gastrointestinal complaints [4]: 0/9 | Gout [4]: 0/9 | Headache [4]: 9/9 | Insomnia [4]: 2/9 | Muscle cramps [4]: 2/9 | Myalgia [4]: 0/9 | Nightmares [4]: 1/9 | Pedal edema [4]: 0/9 | Skin rash/itching [4]: 0/9 | Syncope [4]: 0/9 | Any SAEs since the last visit? (Week 4, % of participants): (0.0%) | Bradycardia (Week 4, % of participants): (0.0%) | Falls (Week 4, % of participants): (0.0%) | Feeling faint/dizziness (Week 4, % of participants): (22.2%) | Flushing (Week 4, % of participants): (11.1%) | Gastrointestinal complaints (Week 4, % of participants): (11.1%) | Gout (Week 4, % of participants): (0.0%) | Headache (Week 4, % of participants): (100.0%) | Insomnia (Week 4, % of participants): (22.2%) | Muscle cramps (Week 4, % of participants): (0.0%) | Myalgia (Week 4, % of participants): (0.0%) | Nightmares (Week 4, % of participants): (0.0%) | Pedal edema (Week 4, % of participants): (0.0%) | Skin rash/itching (Week 4, % of participants): (0.0%) | Syncope (Week 4, % of participants): (0.0%) | Any SAEs since the last visit? (Week 4, n/N participants): 0/9 | Bradycardia (Week 4, n/N participants): 0/9 | Falls (Week 4, n/N participants): 0/9 | Feeling faint/dizziness (Week 4, n/N participants): 2/9 | Flushing (Week 4, n/N participants): 1/9 | Gastrointestinal complaints (Week 4, n/N participants): 1/9 | Gout (Week 4, n/N participants): 0/9 | Headache (Week 4, n/N participants): 9/9 | Insomnia (Week 4, n/N participants): 2/9 | Muscle cramps (Week 4, n/N participants): 0/9 | Myalgia (Week 4, n/N participants): 0/9 | Nightmares (Week 4, n/N participants): 0/9 | Pedal edema (Week 4, n/N participants): 0/9 | Skin rash/itching (Week 4, n/N participants): 0/9 | Syncope (Week 4, n/N participants): 0/9 | Any SAEs since the last visit? (Week 8, % of participants): (0.0%) | Bradycardia (Week 8, % of participants): (0.0%) | Falls (Week 8, % of participants): (0.0%) | Feeling faint/dizziness (Week 8, % of participants): (11.1%) | Flushing (Week 8, % of participants): (11.1%) | Gastrointestinal complaints (Week 8, % of participants): (11.1%) | Gout (Week 8, % of participants): (0.0%) | Headache (Week 8, % of participants): (88.9%) | Insomnia (Week 8, % of participants): (22.2%) | Muscle cramps (Week 8, % of participants): (0.0%) | Myalgia (Week 8, % of participants): (0.0%) | Nightmares (Week 8, % of participants): (0.0%) | Pedal edema (Week 8, % of participants): (0.0%) | Skin rash/itching (Week 8, % of participants): (0.0%) | Syncope (Week 8, % of participants): (0.0%) | Any SAEs since the last visit? (Week 8, n/N participants): 0/9 | Bradycardia (Week 8, n/N participants): 0/9 | Falls (Week 8, n/N participants): 0/9 | Feeling faint/dizziness (Week 8, n/N participants): 1/9 | Flushing (Week 8, n/N participants): 1/9 | Gastrointestinal complaints (Week 8, n/N participants): 1/9 | Gout (Week 8, n/N participants): 0/9 | Headache (Week 8, n/N participants): 8/9 | Insomnia (Week 8, n/N participants): 2/9 | Muscle cramps (Week 8, n/N participants): 0/9 | Myalgia (Week 8, n/N participants): 0/9 | Nightmares (Week 8, n/N participants): 0/9 | Pedal edema (Week 8, n/N participants): 0/9 | Skin rash/itching (Week 8, n/N participants): 0/9 | Syncope (Week 8, n/N participants): 0/9 | Any SAEs since the last visit? (Week 12, % of participants): (0.0%) | Bradycardia (Week 12, % of participants): (0.0%) | Falls (Week 12, % of participants): (0.0%) | Feeling faint/dizziness (Week 12, % of participants): (0.0%) | Flushing (Week 12, % of participants): (0.0%) | Gastrointestinal complaints (Week 12, % of participants): (22.2%) | Gout (Week 12, % of participants): (0.0%) | Headache (Week 12, % of participants): (88.9%) | Insomnia (Week 12, % of participants): (22.2%) | Muscle cramps (Week 12, % of participants): (11.1%) | Myalgia (Week 12, % of participants): (0.0%) | Nightmares (Week 12, % of participants): (11.1%) | Pedal edema (Week 12, % of participants): (0.0%) | Skin rash/itching (Week 12, % of participants): (11.1%) | Syncope (Week 12, % of participants): (0.0%) | Any SAEs since the last visit? (Week 12, n/N participants): 0/9 | Bradycardia (Week 12, n/N participants): 0/9 | Falls (Week 12, n/N participants): 0/9 | Feeling faint/dizziness (Week 12, n/N participants): 0/9 | Flushing (Week 12, n/N participants): 0/9 | Gastrointestinal complaints (Week 12, n/N participants): 2/9 | Gout (Week 12, n/N participants): 0/9 | Headache (Week 12, n/N participants): 8/9 | Insomnia (Week 12, n/N participants): 2/9 | Muscle cramps (Week 12, n/N participants): 1/9 | Myalgia (Week 12, n/N participants): 0/9 | Nightmares (Week 12, n/N participants): 1/9 | Pedal edema (Week 12, n/N participants): 0/9 | Skin rash/itching (Week 12, n/N participants): 1/9 | Syncope (Week 12, n/N participants): 0/9 | Any SAEs since the last visit? (Week 13, % of participants): (0.0%) | Bradycardia (Week 13, % of participants): (0.0%) | Falls (Week 13, % of participants): (0.0%) | Feeling faint/dizziness (Week 13, % of participants): (11.1%) | Flushing (Week 13, % of participants): (0.0%) | Gastrointestinal complaints (Week 13, % of participants): (11.1%) | Gout (Week 13, % of participants): (0.0%) | Headache (Week 13, % of participants): (100.0%) | Insomnia (Week 13, % of participants): (11.1%) | Muscle cramps (Week 13, % of participants): (22.2%) | Myalgia (Week 13, % of participants): (11.1%) | Nightmares (Week 13, % of participants): (11.1%) | Pedal edema (Week 13, % of participants): (0.0%) | Rebound hypertension (Week 13, % of participants): (0.0%) | Skin rash/itching (Week 13, % of participants): (11.1%) | Syncope (Week 13, % of participants): (0.0%) | Any SAEs since the last visit? (Week 13, n/N participants): 0/9 | Bradycardia (Week 13, n/N participants): 0/9 | Falls (Week 13, n/N participants): 0/9 | Feeling faint/dizziness (Week 13, n/N participants): 1/9 | Flushing (Week 13, n/N participants): 0/9 | Gastrointestinal complaints (Week 13, n/N participants): 1/9 | Gout (Week 13, n/N participants): 0/9 | Headache (Week 13, n/N participants): 9/9 | Insomnia (Week 13, n/N participants): 1/9 | Muscle cramps (Week 13, n/N participants): 2/9 | Myalgia (Week 13, n/N participants): 1/9 | Nightmares (Week 13, n/N participants): 1/9 | Pedal edema (Week 13, n/N participants): 0/9 | Rebound hypertension (Week 13, n/N participants): 0/9 | Skin rash/itching (Week 13, n/N participants): 1/9 | Syncope (Week 13, n/N participants): 0/9 | Any SAEs since the last visit? (Week 16, % of participants): (11.1%) | Bradycardia (Week 16, % of participants): (0.0%) | Falls (Week 16, % of participants): (11.1%) | Feeling faint/dizziness (Week 16, % of participants): (22.2%) | Headache (Week 16, % of participants): (77.8%) | Muscle cramps (Week 16, % of participants): (0.0%) | Pedal edema (Week 16, % of participants): (0.0%) | Syncope (Week 16, % of participants): (0.0%) | Any SAEs since the last visit? (Week 16, n/N participants): 1/9 | Bradycardia (Week 16, n/N participants): 0/9 | Falls (Week 16, n/N participants): 1/9 | Feeling faint/dizziness (Week 16, n/N participants): 2/9 | Headache (Week 16, n/N participants): 7/9 | Muscle cramps (Week 16, n/N participants): 0/9 | Pedal edema (Week 16, n/N participants): 0/9 | Syncope (Week 16, n/N participants): 0/9
